Source: the supplement of paper PMC11061612

What was measured:
Assay in all cases: combination Emax (second highest fraction inhibited in the dose matrix, 72 h); higher = more inhibition; extreme values may be limits of the assay
[1] = system: BFTC-905 (Bladder Carcinoma)
Procedure, shortened: (§1)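 After 24 hours at 37°C and 5% CO2 in 1536-well plates, cells in DMEM/F12 or RPMI plus 10% FBS received two-drug dose matrices for 72 hours. Viability came from CellTiter-Glo 2.0 luminescence and was scaled as inhibition, anchored at 0 by vehicle wells and at 1 by blank wells. Combination Emax is taken as the second-highest inhibition in the matrix, and Bliss excess as the observed combination effect less EA + EB − EA·EB, with EA and EB the single-agent effects.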

[2] = system: CAMA-1 (Breast Carcinoma)
Procedure, shortened: as §1

CHP-212 (Neuroblastoma) = system: CHP-212 (Neuroblastoma)
Procedure, shortened: as §1

ES8 (Ewing's Sarcoma) = system: ES8 (Ewing's Sarcoma)
Procedure, shortened: as §1

[3] = system: GR-ST (B-Lymphoblastic Leukemia)
Procedure, shortened: as §1

[4] = system: HDQ-P1 (Breast Carcinoma)
Procedure, shortened: as §1

[5] = system: HL-60 (Acute Myeloid Leukemia)
Procedure, shortened: as §1

[6] = system: K-562 (Chronic Myelogenous Leukemia)
Procedure, shortened: as §1

[7] = system: KCL-22 (Chronic Myelogenous Leukemia)
Procedure, shortened: as §1

[8] = system: MFM-223 (Breast Carcinoma)
Procedure, shortened: as §1

[9] = system: MKN28 (Gastric Carcinoma)
Procedure, shortened: as §1

[10] = system: MOLT-16 (T-Lymphoblastic Leukemia)
Procedure, shortened: as §1

[11] = system: NCI-H1792 (Lung Adenocarcinoma)
Procedure, shortened: as §1

NCI-H2818 (Mesothelioma) = system: NCI-H2818 (Mesothelioma)
Procedure, shortened: as §1

[12] = system: P12-ICHIKAWA (T-Lymphoblastic Leukemia)
Procedure, shortened: as §1

[13] = system: PANC-08-13 (Pancreatic Carcinoma)
Procedure, shortened: as §1

[14] = system: SW1417 (Colorectal Carcinoma)
Procedure, shortened: as §1

[15] = system: SW837 (Colorectal Carcinoma)
Procedure, shortened: as §1

[16] = system: TOV-112D (Ovarian Carcinoma)
Procedure, shortened: as §1

U251 (Low Grade Glioma) = system: U251 (Low Grade Glioma)
Procedure, shortened: as §1

SMILES | combination Emax [1] | combination Emax [2] | combination Emax (CHP-212 (Neuroblastoma)) | combination Emax (ES8 (Ewing's Sarcoma)) | combination Emax [3] | combination Emax [4] | combination Emax [5] | combination Emax [6] | combination Emax [7] | combination Emax [8] | combination Emax [9] | combination Emax [10] | combination Emax [11] | combination Emax (NCI-H2818 (Mesothelioma)) | combination Emax [12] | combination Emax [13] | combination Emax [14] | combination Emax [15] | combination Emax [16] | combination Emax (U251 (Low Grade Glioma))
Cc1nc(Nc2ncc(C(=O)Nc3c(C)cccc3Cl)s2)cc(N2CCN(CCO)CC2)n1 [Dasatinib] + CC(=O)Nc1cccc(-n2c(=O)n(C3CC3)c(=O)c3c(Nc4ccc(I)cc4F)n(C)c(=O)c(C)c32)c1 [Trametinib] (first compound max 2 µM, 7x7, partner max 1 µM) | 0.863 | 0.127 | 1 | 0.223 | 0.361 | 0.958 | 0.703 | 0.747 | 0.93 | 0.561 | 0.417 | 0.326 | 1 | 0.582 | 0.517 | 0.738 | 0.834 | 0.764 | 0.749 | 0.781
NC1(C(=O)N[C@@H](CCO)c2ccc(Cl)cc2)CCN(c2ncnc3[nH]ccc23)CC1 [Capivasertib] + CCN(CCO)CCCOc1ccc2c(Nc3cc(CC(=O)Nc4cccc(F)c4)[nH]n3)ncnc2c1 [AZD2811] (first compound max 10 µM, 7x7, partner max 1 µM) | 0.428 | 0.768 | 0.749 | 1 | 0.702 | 0.321 | 0.859 | 0.245 | 0.472 | 0.918 | 0.206 | 1 | 0.34 | 0.294 | 1 | 0.329 | 0.278 | 0.261 | 0.42 | 0.444
CC1(C)CCC(CN2CCN(c3ccc(C(=O)NS(=O)(=O)c4ccc(NCC5CCOCC5)c([N+](=O)[O-])c4)c(Oc4cnc5[nH]ccc5c4)c3)CC2)=C(c2ccc(Cl)cc2)C1 [Venetoclax] + COc1cc(Nc2ncc3c(n2)-c2ccc(Cl)cc2C(c2c(F)cccc2OC)=NC3)ccc1C(=O)O [Alisertib] (first compound max 1 µM, 7x7, partner max 10 µM) | 0.671 | 0.341 | 0.855 | 0.962 | 0.631 | 0.41 | 0.923 | 0.693 | 0.811 | 0.849 | 0.245 | 1 | 0.65 | 0.36 | 0.953 | 0.302 | 0.235 | 0.308 | 0.684 | 0.49
CS(=O)(=O)CCNCc1ccc(-c2ccc3ncnc(Nc4ccc(OCc5cccc(F)c5)c(Cl)c4)c3c2)o1 [Lapatinib] + C[C@@H](Oc1cc(-c2cnn(C3CCNCC3)c2)cnc1N)c1c(Cl)ccc(F)c1Cl [Crizotinib] (first compound max 10 µM, 7x7, partner max 10 µM) | 0.963 | 0.321 | 0.988 | 1 | 0.988 | 0.936 | 0.941 | 0.962 | 0.979 | 0.662 | 0.779 | 0.992 | 0.924 | 0.59 | 0.975 | 0.802 | 0.669 | 0.772 | 0.791 | 0.785
C[C@@H](c1ccc2nccn2c1)n1nnc2ncc(-c3cnn(C)c3)nc21 [Savolitinib] + CC1(C)CCC(CN2CCN(c3ccc(C(=O)NS(=O)(=O)c4ccc(NCC5CCOCC5)c([N+](=O)[O-])c4)c(Oc4cnc5[nH]ccc5c4)c3)CC2)=C(c2ccc(Cl)cc2)C1 [Venetoclax] (first compound max 1 µM, 7x7, partner max 1 µM) | 0.164 | 0.17 | 0.108 | 0.259 | 0.218 | 0.117 | 0.658 | 0.155 | 0.137 | 0.0596 | 0.0564 | 0.58 | 0.108 | 0.127 | 0.188 | 0.109 | 0.126 | 0.14 | 0.0298 | 0.116
Cc1c2c(nn1C)CSCc1cc(n(C)n1)CSc1cc(c3ccccc3c1)OCCCc1c(C(=O)O)n(C)c3c-2c(Cl)ccc13 [AZD5991] + CC1(C)CCC(CN2CCN(c3ccc(C(=O)NS(=O)(=O)c4ccc(NCC5CCOCC5)c([N+](=O)[O-])c4)c(Oc4cnc5[nH]ccc5c4)c3)CC2)=C(c2ccc(Cl)cc2)C1 [Venetoclax] (first compound max 1 µM, 7x7, partner max 1 µM) | 0.604 | 0.934 | 0.835 | 0.864 | 0.124 | 0.216 | 1 | 0.226 | 0.928 | 0.276 | 0.126 | 1 | 0.379 | 0.387 | 1 | 0.116 | 0.191 | 0.184 | 0.777 | 0.239
